7 compounds from US9371365B2, “Modified compstatin with peptide backbone and C-terminal modifications” (The Trustees of the University of Pennsylvania, priority 2009, dated 2016) can be followed below.

The target of one assay is T1, C3b (Homo sapiens, UniProt P01024).
T1 construct: biotin (chemical biotinylation of C3b)
Kind of assay: SPR analysis of binding kinetics to immobilized C3b. The conditions noted are these: for kd: 25° C., PBS-T; for kon: pH 7.4, read-out: ka; for rKD SPR / rka / rkd: relative to peptide 14. The procedure: (§1) The kinetics of the interaction between C3b and each compstatin analog was analyzed by SPR on a Biacore 3000 instrument (GE Healthcare Corp., Piscataway, N.J.) at 25° C. using PBS-T (10 mM sodium phosphate, 150 mM NaCl, 0.005% Tween-20, pH 7.4) as the running buffer, as described above. In brief, biotinylated C3b (30 μg/mL) was immobilized on a streptavidin-coated sensor chip, and a two-fold serial dilution series (1 μM-500 pM) of each analog was injected for 2 min at 30 μl/min, with a dissociation phase of 5-10 min. Peptide [Trp(Me)^4]-Ac-compstatin was included in each experimental series as an internal control and reference. Data analysis was performed using Scrubber (BioLogic Software, Campbell, Australia). The signals from an untreated flow cell and an ensemble of buffer blank injections were subtracted to correct for buffer effects and injection artifacts. Processed biosensor data were globally fitted to a 1:1 Langmuir binding model, and the equilibrium dissociation constant (KD) was calculated from the equation KD=kd/ka. Peptide solutions were injected in duplicate in every experiment, and each screening assay was performed at least twice.
as §1, with “in Example 1.” for “above.”, “μg/ml)” for “μg/mL)”, “Peptide [Trp(Me)^4]-Ac-compstatin was included in each experimental series as an internal control and reference.” left out

A further assay addresses T2, C3 (Homo sapiens, UniProt P01024).
T2 construct: C3 was purified from fresh human plasma; from tissue; host or cells: fresh human plasma (blood bank of the Hospital of the University of Pennsylvania)
Kind of assay: ITC analysis of binding to C3. The settings on record: for ΔH / −TΔS / ΔG: ITC; for ΔG: ΔG=ΔH−TΔS; for rKD ITC / ΔΔG / ΔΔH / −TΔΔS: relative to peptide 14. On the procedure:
C3 was purified from fresh human plasma obtained from the blood bank of the Hospital of the University of Pennsylvania. In brief, the plasma was fractionated with 15% (w/v) PEG 3350, and the pellet was resuspended in 20 mM phosphate buffer, pH 7.8, and then subjected to anion-exchange chromatography on a DEAE-HR 40 column (50×5 cm; Millipore Inc., Billerica, Mass.) with the same buffer. Proteins were eluted with 6 L of a linear gradient (15-70%) of 20 mM phosphate buffer, pH 7.8, containing 500 mM NaCl. C3 was further purified on a size-exclusion Superdex 200 26/60 column (Amersham Biosciences) and a Mono S column (Amersham Biosciences) to separate C3 from C3(H2O).
All titrations were performed in PBS (10 mM phosphate buffer with 150 mM NaCl, pH 7.4) at 25° C. using multiple peptide injections of 2-7 μL each. The raw isotherms were corrected for the heats of dilution by subtracting the isotherms representing peptide injections into the buffer. The resulting isotherms were fitted to a single site of sites models using Origin 7.0 software, and the model that produced the lowest χ^2 value was deemed to be appropriate for the respective data set. The Gibbs free energy was calculated as ΔG=ΔH−TΔS. Each experiment was repeated at least twice.

Assay [1] deals with classical pathway of complement. Kind of assay: Inhibition of classical pathway complement activation, ELISA in human serum. The conditions noted are these: for IC50: read-out: IC50; for rP: relative potency compared to peptide 14; for inhibition of complement activation, result in words: ELISA, N-methylation scan. It is filed as biochemical. On the procedure: The ability of the compstatin analogs to inhibit the activation of the classical pathway of complement was assessed by ELISA (Mallik et al., 2005, J Med Chem 48:274-86). In brief, complement was activated in human serum using an antigen-antibody complex in the presence or absence of compstatin analogs, and the deposition of C3 fragments on the plate surface was detected using an HRP-conjugated polyclonal anti-C3 antibody. […] The percent inhibition was plotted against the peptide concentration, and the resulting data set was fitted to the logistic dose-response function using Origin 7.0 software. IC50 values were obtained from the fitted parameters that produced the lowest χ^2 value. Each analog was assayed at least three to seven times.
The ability of the compstatin analogs to inhibit the activation of the classical pathway of complement was assessed by ELISA as described in Example 1. Each conjugate was assayed at least three times.
On the technique in general: ELISA stands for enzyme-linked immunosorbent assay.

Usually IC50 stands for the concentration that gives 50% inhibition.

Like-named read-outs stand apart in the source and are kept apart here. Bridge positions count the residues as written; N and C are the ends. Square brackets hold non-standard residues; d marks the D form. Peptide text beside a SMILES is read from it. Trp(1-Me) = Cn1cc(C[C@H](N)C(=O)O)c2ccccc21; NMeY = CN[C@@H](Cc1ccc(O)cc1)C(=O)O; NMeV = CN[C@H](C(=O)O)C(C)C; NMeA = CN[C@@H](C)C(=O)O; Nle = CCCC[C@H](N)C(=O)O; Sar = CNCC(=O)O

T1 sequence (P01024 23-667 limits assumed): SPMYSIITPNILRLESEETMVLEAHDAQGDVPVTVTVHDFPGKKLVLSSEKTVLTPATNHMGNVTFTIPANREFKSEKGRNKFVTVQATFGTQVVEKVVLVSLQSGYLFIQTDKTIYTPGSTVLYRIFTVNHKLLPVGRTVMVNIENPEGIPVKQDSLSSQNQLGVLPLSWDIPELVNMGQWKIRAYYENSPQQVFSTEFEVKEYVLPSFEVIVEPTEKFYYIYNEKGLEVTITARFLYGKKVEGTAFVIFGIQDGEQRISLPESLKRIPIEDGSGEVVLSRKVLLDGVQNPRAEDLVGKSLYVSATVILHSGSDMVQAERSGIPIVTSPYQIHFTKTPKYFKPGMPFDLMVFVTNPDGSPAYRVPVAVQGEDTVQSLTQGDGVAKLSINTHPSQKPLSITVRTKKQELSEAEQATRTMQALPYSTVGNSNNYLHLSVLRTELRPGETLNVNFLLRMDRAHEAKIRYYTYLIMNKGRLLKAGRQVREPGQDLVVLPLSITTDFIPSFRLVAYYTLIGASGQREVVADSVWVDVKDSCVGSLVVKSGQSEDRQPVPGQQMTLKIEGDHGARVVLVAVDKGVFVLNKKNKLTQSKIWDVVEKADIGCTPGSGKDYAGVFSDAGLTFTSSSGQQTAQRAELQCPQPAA
T1 sequence (P01024 749-1663 limits assumed): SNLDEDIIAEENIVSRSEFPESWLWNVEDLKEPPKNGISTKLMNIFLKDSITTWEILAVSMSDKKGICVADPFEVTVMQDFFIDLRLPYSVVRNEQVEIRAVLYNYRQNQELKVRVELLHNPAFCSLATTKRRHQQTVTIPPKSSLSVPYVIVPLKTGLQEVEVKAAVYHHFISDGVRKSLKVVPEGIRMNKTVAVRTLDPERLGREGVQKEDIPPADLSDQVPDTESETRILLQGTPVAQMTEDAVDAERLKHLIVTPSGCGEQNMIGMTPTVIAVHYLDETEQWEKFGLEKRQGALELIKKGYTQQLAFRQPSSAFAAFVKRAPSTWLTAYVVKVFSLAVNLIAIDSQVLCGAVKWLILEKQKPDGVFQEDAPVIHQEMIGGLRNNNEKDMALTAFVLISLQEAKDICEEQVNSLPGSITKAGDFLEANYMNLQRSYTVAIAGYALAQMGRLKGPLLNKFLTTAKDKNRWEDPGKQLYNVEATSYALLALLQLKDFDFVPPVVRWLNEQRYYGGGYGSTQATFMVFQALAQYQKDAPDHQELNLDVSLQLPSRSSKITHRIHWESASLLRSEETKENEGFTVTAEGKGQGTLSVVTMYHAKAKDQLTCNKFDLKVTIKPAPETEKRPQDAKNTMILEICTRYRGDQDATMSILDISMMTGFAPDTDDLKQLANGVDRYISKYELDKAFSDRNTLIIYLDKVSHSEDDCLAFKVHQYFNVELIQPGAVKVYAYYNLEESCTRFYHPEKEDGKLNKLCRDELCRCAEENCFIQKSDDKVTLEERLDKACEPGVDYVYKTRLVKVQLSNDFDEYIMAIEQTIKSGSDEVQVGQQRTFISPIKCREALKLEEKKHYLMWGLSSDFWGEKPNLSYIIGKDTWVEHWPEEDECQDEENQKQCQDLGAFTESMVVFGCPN
T2 sequence (P01024 23-667 limits assumed): as the sequence (P01024 23-667 limits assumed) above
T2 sequence (P01024 672-1663 limits assumed): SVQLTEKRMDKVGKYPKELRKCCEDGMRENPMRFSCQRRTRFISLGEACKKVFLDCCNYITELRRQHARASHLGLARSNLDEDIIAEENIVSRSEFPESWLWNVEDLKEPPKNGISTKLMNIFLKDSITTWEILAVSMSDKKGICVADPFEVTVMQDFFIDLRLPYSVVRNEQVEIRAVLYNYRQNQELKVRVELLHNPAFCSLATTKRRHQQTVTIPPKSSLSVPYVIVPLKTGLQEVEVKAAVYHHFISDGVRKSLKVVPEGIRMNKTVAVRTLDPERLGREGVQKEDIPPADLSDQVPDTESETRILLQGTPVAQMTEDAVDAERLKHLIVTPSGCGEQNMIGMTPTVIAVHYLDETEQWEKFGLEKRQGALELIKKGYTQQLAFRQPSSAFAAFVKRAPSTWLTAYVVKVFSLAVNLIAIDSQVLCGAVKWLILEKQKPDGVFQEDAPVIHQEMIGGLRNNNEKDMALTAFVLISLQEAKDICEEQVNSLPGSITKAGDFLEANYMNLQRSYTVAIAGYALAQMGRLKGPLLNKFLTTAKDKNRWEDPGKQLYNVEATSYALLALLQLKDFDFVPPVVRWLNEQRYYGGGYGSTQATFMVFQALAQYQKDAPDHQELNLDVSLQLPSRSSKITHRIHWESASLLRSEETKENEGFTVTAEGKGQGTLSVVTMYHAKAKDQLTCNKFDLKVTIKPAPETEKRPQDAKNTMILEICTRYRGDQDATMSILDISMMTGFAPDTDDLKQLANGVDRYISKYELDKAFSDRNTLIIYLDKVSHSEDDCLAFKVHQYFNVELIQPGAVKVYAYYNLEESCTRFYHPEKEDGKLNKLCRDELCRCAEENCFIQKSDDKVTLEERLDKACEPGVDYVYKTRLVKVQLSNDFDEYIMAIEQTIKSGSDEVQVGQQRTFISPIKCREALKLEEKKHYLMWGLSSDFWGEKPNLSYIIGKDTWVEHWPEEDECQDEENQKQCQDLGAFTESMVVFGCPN

Turning to `CC[C@H](C)[C@H](NC(=O)[C@@H]1CSSC[C@H](NC(=O)[C@@H](NC(C)=O)[C@@H](C)CC)C(=O)N[C@@H](C(C)C)C(=O)N[C@@H](Cc2cn(C)c3ccccc23)C(=O)N[C@@H](CCC(N)=O)C(=O)N[C@@H](CC(=O)O)C(=O)N[C@@H](Cc2c[nH]c3ccccc23)C(=O)NCC(=O)N[C@@H](C)C(=O)N[C@@H](Cc2c[nH]cn2)C(=O)N[C@@H](CCCNC(=N)N)C(=O)N1)C(N)=O` [Peptide 16], the kd at C3b (SPR) is 11.0 10^−3/s. For the same compound, on C3b, the kon worked out at 1e+06 M⁻¹ s⁻¹, the “rKD SPR” value is 1.1, the rka turned out to be 1.0 and the rkd stood at 1.0. On C3, the ΔH is -69.5 kJ/mol, the “−TΔS” value amounted to 23.8 kJ/mol, the ΔG is -45.6 kJ/mol and the “rKD ITC” value was found to be 1.2. Also, on C3, the ΔΔG was -0.84 kJ/mol, the ΔΔH was found to be 4.18 kJ/mol and the “−TΔΔS” value is -5.44 kJ/mol.

Turning to `CC[C@H](C)[C@H](NC(C)=O)C(=O)N[C@H]1CSSC[C@@H](C(=O)N[C@@H](CC(C)C)C(N)=O)NC(=O)[C@H](CCCNC(=N)N)NC(=O)[C@H](Cc2c[nH]cn2)NC(=O)[C@H](C)NC(=O)CN(C)C(=O)[C@H](Cc2c[nH]c3ccccc23)NC(=O)[C@H](CC(=O)O)NC(=O)[C@H](CCC(N)=O)NC(=O)[C@H](Cc2cn(C)c3ccccc23)NC(=O)[C@H](C(C)C)NC1=O` [Peptide 18, Ac−Ic[CV(^1−MeW)QDW(^N−MeG)AHRC]L-NH2] (Ac-ICV[Trp(1-Me)]QDW[Sar]AHRCL-NH2; disulfide 2-12), the kd at C3b (SPR) was 6.0 10^−3/s. Further, at C3b, the kon came to 1.3e+06 M⁻¹ s⁻¹, the “rKD SPR” value was found to be 2.6, the rka is on record as 1.3 and the rkd is reported as 1.9. The IC50 in assay [1] (Table 1-2) stood at 0.108 µM. Moreover, in assay [1] (exemplary analogs table), the IC50 is 0.108 µM. In assay [1], this compound yielded a rP of 1.9.

Consider `CCCC[C@H](NC(=O)[C@@H]1CSSC[C@H](NC(=O)[C@@H](NC(C)=O)[C@@H](C)CC)C(=O)N[C@@H](C(C)C)C(=O)N[C@@H](Cc2cn(C)c3ccccc23)C(=O)N[C@@H](CCC(N)=O)C(=O)N[C@@H](CC(=O)O)C(=O)N[C@@H](Cc2c[nH]c3ccccc23)C(=O)N(C)CC(=O)N[C@@H](C)C(=O)N[C@@H](Cc2c[nH]cn2)C(=O)N[C@@H](CCCNC(=N)N)C(=O)N1)C(N)=O` [Peptide 19, Ac−Ic[CV(^1−MeW)QDW(^N−MeG)AHRC](Nle)-NH2] (Ac-ICV[Trp(1-Me)]QDW[Sar]AHRC[Nle]-NH2; disulfide 2-12), for which the kd at C3b (SPR) is 6.6 10^−3/s. On C3b, the kon is 1.5e+06 M⁻¹ s⁻¹, the “rKD SPR” value is 2.7, the rka is reported as 1.5 and the rkd worked out at 1.7. Further, the IC50 in assay [1] (Table 1-2) was found to be 0.109 µM. Moreover, the half-maximal inhibitory concentration (IC50) in assay [1] (exemplary analogs table) came out at 0.109 µM. For the same compound, in assay [1], the rP is given as 1.9.

For the compound `CC[C@H](C)[C@H](NC(C)=O)C(=O)N[C@H]1CSSC[C@@H](C(=O)N(C)[C@H](C(N)=O)[C@@H](C)CC)NC(=O)[C@H](CCCNC(=N)N)NC(=O)[C@H](Cc2c[nH]cn2)NC(=O)[C@H](C)NC(=O)CN(C)C(=O)[C@H](Cc2c[nH]c3ccccc23)NC(=O)[C@H](CC(=O)O)NC(=O)[C@H](CCC(N)=O)NC(=O)[C@H](Cc2cn(C)c3ccccc23)NC(=O)[C@H](C(C)C)NC1=O` [Peptide 21, Ac−Ic[CV(^1−MeW)QDW(^N−MeG)AHRC](^N−MeI)-NH2], at C3b (SPR), the “fold stronger affinity than peptide 14” value is “more than 5 fold” and the kd is 3.5 10^−3/s. Besides, on C3b, the kon turned out to be 1.5e+06 M⁻¹ s⁻¹, the “rKD SPR” value was found to be 5.2, the rka turned out to be 1.5 and the rkd stood at 3.2. Besides, the 50% inhibitory concentration (IC50) in assay [1] (Table 1-2) came to 0.062 µM. In addition, the IC50 in assay [1] (exemplary analogs table) amounted to 0.062 µM. For the same compound, in assay [1], the rP is on record as 3.3. For the same compound, on C3, the ΔH was -71.5 kJ/mol, the “−TΔS” value was 23.8 kJ/mol, the ΔG was -47.7 kJ/mol and the “rKD ITC” value is given as 3.3. On C3, the ΔΔG is -2.9 kJ/mol, the ΔΔH came out at 2.1 kJ/mol and the “−TΔΔS” value was -5.44 kJ/mol.

With “Ac-I[C(NMe)VYQDWGAHRC]T-NH2 (Ac-IC[NMeV]YQDWGAHRCT-NH2; disulfide 2-12; SMILES CC[C@H](C)[C@H](NC(C)=O)C(=O)N[C@H]1CSSC[C@@H](C(=O)N[C@H](C(N)=O)[C@@H](C)O)NC(=O)[C@H](CCCNC(=N)N)NC(=O)[C@H](Cc2c[nH]cn2)NC(=O)[C@H](C)NC(=O)CNC(=O)[C@H](Cc2c[nH]c3ccccc23)NC(=O)[C@H](CC(=O)O)NC(=O)[C@H](CCC(N)=O)NC(=O)[C@H](Cc2ccc(O)cc2)NC(=O)[C@H](C(C)C)N(C)C1=O) [Peptide 3]”, the “inhibition of complement activation, result in words” value (from here on “inhibition of complement activation”) in assay [1] was “completely inactive”.

Regarding “Ac-I[CV(NMe)YQDWGAHRC]T-NH2 (Ac-ICV[NMeY]QDWGAHRCT-NH2; disulfide 2-12; SMILES CC[C@H](C)[C@H](NC(C)=O)C(=O)N[C@H]1CSSC[C@@H](C(=O)N[C@H](C(N)=O)[C@@H](C)O)NC(=O)[C@H](CCCNC(=N)N)NC(=O)[C@H](Cc2c[nH]cn2)NC(=O)[C@H](C)NC(=O)CNC(=O)[C@H](Cc2c[nH]c3ccccc23)NC(=O)[C@H](CC(=O)O)NC(=O)[C@H](CCC(N)=O)NC(=O)[C@H](Cc2ccc(O)cc2)N(C)C(=O)[C@H](C(C)C)NC1=O) [Peptide 4]”, the “inhibition of complement activation” value in assay [1] was “completely inactive”.

In the case of “Ac-I[CVYQDWG(NMe)AHRC]T-NH2 (Ac-ICVYQDWG[NMeA]HRCT-NH2; disulfide 2-12; SMILES CC[C@H](C)[C@H](NC(C)=O)C(=O)N[C@H]1CSSC[C@@H](C(=O)N[C@H](C(N)=O)[C@@H](C)O)NC(=O)[C@H](CCCNC(=N)N)NC(=O)[C@H](Cc2c[nH]cn2)NC(=O)[C@H](C)N(C)C(=O)CNC(=O)[C@H](Cc2c[nH]c3ccccc23)NC(=O)[C@H](CC(=O)O)NC(=O)[C@H](CCC(N)=O)NC(=O)[C@H](Cc2ccc(O)cc2)NC(=O)[C@H](C(C)C)NC1=O) [Peptide 9]”, the “inhibition of complement activation” value in assay [1] is “completely inactive”.
